Cytotoxicity data for 98 compounds are collected here from ChEMBL document CHEMBL3507680, “University of Dundee, Gates Library screen for HepG2 cell viability”.

The nature of the series: Human HepG2 cell viability assay in 384 well format. Type of series: toxicity, cell-based. The arrangement: dose 125 nL, time 70.5 hour; concentration not given beside the values. The settings on record: HepG2 cells, read-out: Inhibition.
For the compound `Cc1ccc(S(=O)(=O)N2CCn3nc(C)nc3C2)c(Cl)c1`, the cytotoxicity at 70.5 h was -2.97%. The value for `O=S(=O)(c1cccnc1)N1CCC(OCCCc2ccccc2)C1` (stereo not drawn) was -0.248%; that for `CN(C)C(=O)N1C[C@@H]2COC[C@]2(CNS(C)(=O)=O)C1` was -14.4%; that for `CN(C)C(=O)c1ccc(-c2cccc3c2CCNC3)o1` was -5.11%.

For `CNC(=O)Cn1nc(C(C)C)c2cnn(C(C)(C)C)c2c1=O`, the cytotoxicity at 70.5 h is 25.5%. With `Cc1nn(C)c2ncc(NC(=O)N(C)Cc3cnn(C)c3)cc12`, the cytotoxicity at 70.5 h was -14%. To `NC(=O)C(NC(=O)c1ccc(NC2CC2)nc1)c1ccccc1` (stereo not drawn) belongs -5.49%.

As to `N#Cc1c(F)cccc1Nc1cnn(CC(=O)N2CCOCC2)c1`, the cytotoxicity at 70.5 h worked out at 39.8%.

On to `c1ccc2sc(CN3CCCC3c3noc(C4CC4)n3)nc2c1` (stereo not drawn), for which the cytotoxicity at 70.5 h turned out to be 4.52%.

Take `CC(O)CN1CCN(C(=O)c2ccc(Cn3cccn3)cc2)CC1` (stereo not drawn): the cytotoxicity at 70.5 h is -7.08%. Take `O=C(NCCO)c1cc(-c2ccc3c(c2)CCO3)n[nH]1`: the cytotoxicity at 70.5 h amounted to 18%. The value for `C=C(Cl)CN(C)C1CCN(CCc2ccccn2)CC1` was -6.31%. Take `CN(C)S(=O)(=O)N1CCCCC1CCc1ccc(O)cc1` (stereo not drawn): the cytotoxicity at 70.5 h is -6.59%. The value for `CCN1C[C@@H]2CN(C(=O)NCc3ccccc3)CCC[C@]2(C(=O)O)C1` was -15.2%; that for `Cc1cnn(CCNCC(=O)NCC2(c3ccccc3)CC2)c1` was 31.1%. To `CC(NC(=O)Nc1cccnc1N1CCOCC1)c1ccccc1` (stereo not drawn) belongs -8.45%; to `COCCN(C)C1COC2(CCN(Cc3ccccn3)CC2)C1` (stereo not drawn), 11.6%; to `CCCc1n[nH]c(C2CN(Cc3ncc[nH]3)CCO2)n1` (stereo not drawn), 4.94%. For `CC(C)CN1C[C@@H]2C(=O)N(C)C3(CCN(C(=O)C(C)C)CC3)[C@@H]2C1`, the cytotoxicity at 70.5 h is -6.33%. Consider `CCc1n[nH]c(C2CN(CCc3ccncc3)CCO2)n1` (stereo not drawn), for which the cytotoxicity at 70.5 h is -7.11%. The value for `c1ccc2sc(NCC3(N4CCOCC4)CCSC3)nc2c1` (stereo not drawn) was -4.14%; that for `CCOCc1nc2c(c(NC(CC)c3cccnc3)n1)CCNCC2` (stereo not drawn) was -3.13%. As to `Cc1nn2cnnc2c(C)c1CCC(=O)Nc1nnc(C(C)C)s1`, the cytotoxicity at 70.5 h was determined as 12.1%.

Consider `Cc1nn(C)cc1C(=O)NCc1cc(N(C)C)nc2ccccc12`, for which the cytotoxicity at 70.5 h was -0.83%. To `CCn1cc(CN2CCCN(C(=O)Cc3ccc(C)nc3)CC2)cn1` belongs -9.56%; to `O=C(NCc1nncn1-c1ccccc1)C1CCCC1`, -4.48%; to `COC(=O)[C@@H](NC(=O)c1snnc1-c1ccc(OC)cc1)C(C)C`, 11.1%. To `Cc1cc(NCc2ccc(S(N)(=O)=O)cc2)nc(C)n1` belongs -13.8%. The value for `O=C1CN(Cc2cn(CC3CCN(C4CCSCC4)CC3)nn2)CCN1` was 20.3%; that for `NC(=O)c1ccc(S(=O)(=O)NCCc2ccccn2)cc1` was 1.11%. Regarding `CC(C)=CCN1C[C@H]2CC[C@@H]1CN(C(=O)Cn1c(C)cc(C)nc1=O)C2`, the cytotoxicity at 70.5 h was -4.66%. The value for `Cc1c(C(C)NC2CCN(C(C)C)CC2)cnn1-c1ccc(F)cc1F` (stereo not drawn) was -9.98%; that for `CNc1cncc(C2CCCN2S(=O)(=O)c2ccc(F)cc2)n1` (stereo not drawn) was -2.18%; that for `COCCN1CC2(CCCN(c3ncnc4[nH]cnc34)C2)CCC1=O` (stereo not drawn) was -1.89%. For the compound `NC(=O)C1CCN(C(=O)NCc2cccnc2OC2CCCC2)C1` (stereo not drawn), the cytotoxicity at 70.5 h is -5.81%. The value for `CNCC(=O)N1CCCC1c1n[nH]cc1-c1ccccc1F` (stereo not drawn) was 0.833%. On to `C=C(C)COc1ccccc1CNC(CC)c1ccnn1C` (stereo not drawn), for which the cytotoxicity at 70.5 h is -5.65%.

As for `CSc1ccc(-c2noc(CN(Cc3ccccc3)C(C)C)n2)cc1`, the cytotoxicity at 70.5 h is -6.81%. To `CCN(Cc1ccoc1)C(=O)C1CCN(C(=O)OC(C)(C)C)C1` (stereo not drawn) belongs 18.9%; to `CC(NC(=O)c1ccc(Cl)cc1)c1nnc(SCC(N)=O)n1C` (stereo not drawn), -8%.

Consider `Cc1nc[nH]c1CN1CCC(CNC(=O)c2cccc3cnccc23)C1` (stereo not drawn), for which the cytotoxicity at 70.5 h is -7.78%.

For `CCNc1ccnc(NCC2CNCCO2)n1` (stereo not drawn), the cytotoxicity at 70.5 h was -3.23%. As to `CCc1c(C)nn(C)c1NC(=O)N1CCCOC(Cn2cccn2)C1` (stereo not drawn), the cytotoxicity at 70.5 h is -4.64%. The value for `Cc1nc(CN(CCS(C)(=O)=O)C(C)(C)C)no1` was 42.5%; that for `CN(C)c1ncc2c(n1)CCCC2NC(=O)c1ccsc1` (stereo not drawn) was -3.74%. On to `CC(C)c1nc(N2CCC(N3CCSCC3)CC2)c2cnn(C)c2n1`, for which the cytotoxicity at 70.5 h is -2.43%. The value for `Cc1cccc(CN2CCC3(CCC(CC(=O)N(C)C)CC3)CC2)n1` was -8.22%; that for `CCc1nc(CN(C)c2nccc(N3CCCC(O)C3)n2)no1` (stereo not drawn) was -0.51%. Regarding `Cc1cc(C(F)(F)F)nc(N(C)Cc2c(C)noc2C)n1`, the cytotoxicity at 70.5 h was 13.3%.

`COc1ccccc1C1(C(=O)N2CCCC(c3cc(C)[nH]n3)C2)CC1` (stereo not drawn): the cytotoxicity at 70.5 h was -0.122%.

On to `O=C(NC1CC1)c1cccc(Oc2ccc3nncn3n2)c1`, for which the cytotoxicity at 70.5 h was -4.61%. On to `CC(C)CN1C[C@@H]2CN(C(=O)[C@H]3CCCO3)C[C@@H]2C1=O`, for which the cytotoxicity at 70.5 h was -14.1%.

Consider `Cc1cc(CN2CC[C@H]3C[C@H](C(=O)N(C)C)O[C@@H]3C2)no1`, for which the cytotoxicity at 70.5 h was -13.6%. With `CCc1cccc(OCCCN(C)C(=O)CN2CCNC2=O)c1`, the cytotoxicity at 70.5 h was 0.78%.

Consider `O=S(=O)(NC1=NCN(CCc2cccs2)CN1)c1ccc(Cl)cc1`, for which the cytotoxicity at 70.5 h is -14.8%.

Take `COC(=O)c1cccn1C1CCN(Cc2nc3ccccc3o2)CC1`: the cytotoxicity at 70.5 h is -3.04%. With `Cn1cc(N2CC3(CCN(Cc4ccsc4)CC3)OCC2=O)cn1`, the cytotoxicity at 70.5 h came to 13.1%. The value for `Cc1ccc(CN2Cc3c(cnn3C)C(COCC3CC3)C2)s1` (stereo not drawn) was 35.1%; that for `Cc1cc(-c2nn(C)c(Cl)c2CN2Cc3ccccc3C(O)C2)no1` (stereo not drawn) was -11.3%; that for `COc1ccc(OC)c(C2CCN(C(=O)C3CCOCC3)C2)c1` (stereo not drawn) was -6.78%. The value for `CCOC(=O)[C@@H]1[C@@H](O)C(=O)N(C)C12CCN(C(=O)OC)CC2` was -10.2%; that for `CCC(CNC(=O)c1cc(CC(C)C)nn1C)N(C)CC` (stereo not drawn) was -8.14%. In the case of `CN(C)C(=O)CN1CCC2(CC1)C[C@@H](O)[C@H](c1ccccc1)NC2=O`, the cytotoxicity at 70.5 h was -8.01%. The value for `COCCN(Cc1ccoc1)C(=O)c1ccccc1OC` was -1.89%; that for `COc1ccc(CCNC(=O)C2CCCOC2)c(Cl)c1` (stereo not drawn) was 3.61%; that for `COc1ccc(C)cc1C(=O)N1CCCC(n2cncn2)C1` (stereo not drawn) was -3.25%. The value for `CN1C(=O)C2(CCN(C(=O)C3CCOCC3)CC2)c2ccccc21` was -3.31%. To `CC(=O)CC(C)(C)NC(=O)CCN(C)Cc1ccc(Cl)s1` belongs -9.29%; to `CN(C)C1CCN(C(=O)c2ccnn2-c2ccc3ccccn23)CC1`, -5.01%.

Consider `Cc1cc(CCC(N)=O)cc(C2CCCN2Cc2cnc(C)nc2)n1` (stereo not drawn), for which the cytotoxicity at 70.5 h is -7.32%. The value for `FC(F)(F)c1ccnc(N2CCCC(N3CCOCC3)C2)c1` (stereo not drawn) was 9.74%; that for `COc1cccc(NC(=O)N2CC[C@@H]3CN(C)S(=O)(=O)[C@@H]3CC2)c1` was 20.9%; that for `CCC/N=c1/c(NC(=O)NCCCOC)c(O)oc2ccccc12` was 29.3%. As for `Cc1noc(C)c1CN1C(=O)[C@H]2CC[C@@H]1CN(Cc1nccs1)C2`, the cytotoxicity at 70.5 h was 0.0707%. To `CSCCC(=O)N1CCC(c2nccn2Cc2cscn2)CC1` belongs -5.4%. The value for `Cc1nc(CN(C)Cc2cc3c(cc2OC(F)F)OCO3)cs1` was -7.91%. To `CN(C)CCOCC1CN(C(=O)c2ccccn2)Cc2ccnn2C1` (stereo not drawn) belongs 6.38%; to `CC(C)c1nc(C2CCCN(C(=O)CCc3cscn3)C2)no1` (stereo not drawn), -2.82%; to `CC(C)c1cc(NC(=O)CN2CCCC(Cn3cncn3)C2)on1` (stereo not drawn), 17.9%.

Regarding `CCN(C)C(=O)c1cc(-c2ccn(C(C)C)n2)n2ccccc12`, the cytotoxicity at 70.5 h is -3.51%. To `O=C(c1ccccn1)N1Cc2nccn2CC(COc2cccnc2)C1` (stereo not drawn) belongs 22.8%. To `Cn1ccnc1CN1CCCN(C(=O)c2ccc3ccccc3c2)CC1` belongs 1.95%; to `O=C(c1cccs1)N1CCOCC2(C1)CN(c1cccnc1)C(=O)CO2` (stereo not drawn), -16.5%; to `CC(=O)c1cccc(OCCCC(=O)NC(C#N)CC(C)C)c1` (stereo not drawn), -9.77%. To `c1ccc(Oc2nccnc2C2CCN(C3CCOCC3)CC2)cc1` belongs -7.7%. Take `CN(CCC(=O)N1CCc2sccc2C1)Cc1cc(Br)cs1`: the cytotoxicity at 70.5 h is -4.84%. To `Cc1cnccc1CN1CC[C@@](C)(O)[C@H](Oc2cccc(F)c2)C1` belongs -1.49%. Consider `CCC1CCCCCN1C(=O)c1ccc(N2CCC(O)CC2)cc1` (stereo not drawn), for which the cytotoxicity at 70.5 h is -1.83%. On to `CC(C)c1noc(C(C)N2CCN(Cc3noc(C(C)(C)C)n3)CC2)n1` (stereo not drawn), for which the cytotoxicity at 70.5 h is -3.35%. On to `Cc1noc(CN(C)C(=O)c2n[nH]c(N)c2-c2ccccc2)n1`, for which the cytotoxicity at 70.5 h turned out to be 2.44%. To `CN(CCCc1ccccc1)C(=O)c1ccccc1NCC(=O)O` belongs -13.3%; to `CCc1cc(NCC(O)CN2CCCCC2)ncn1` (stereo not drawn), -4.61%; to `COCC1c2nnn(CC3CC3)c2CCN1C(=O)c1cc(C)on1` (stereo not drawn), -12.7%.

For `Cc1cccc(OCCCNC(=O)Cn2ccc(C)cc2=O)c1`, the cytotoxicity at 70.5 h was -6.82%. The value for `Cc1nc(C)c(CN2CCOC[C@H](Oc3ccc(S(C)(=O)=O)cc3)C2)s1` was 0.478%; that for `CCc1nccn1CC(=O)Nc1cccc(N2CCCC2)c1` was 9.22%; that for `CCCN1C[C@H]2CC[C@@H]1CN(Cc1cccc(-n3cccn3)c1)C2` was -0.983%. The value for `O=C(NCC(O)c1ccc(F)cc1F)c1ccccc1F` (stereo not drawn) was -12.6%.
